Results as given in patent US12655116B2, “Substituted isophthalic acid diamides” (Bayer Aktiengesellschaft, priority 2020, dated 2026).

Assays:
ABUTH [1] = assay: Pre-emergence herbicidal action against ABUTH; type: in vivo, Abutilon theophrasti; conditions: for Pre-emergence action against ABUTH (herbicidal activity): 80 g/ha, scored visually after 3 weeks vs untreated controls (100% = plants have died, 0% = like control plants); for Pre-emergence action against ABUTH (herbicidal activity in percent): dosage 20 g/ha, scored visually after 3 weeks vs untreated controls, 100% = plants have died, 0% = like control plants
Summary of the method: (§1)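 Sandy loam pots, seeds covered with soil, then surface-treated with WP or EC formulations at 600–800 l/ha water plus 0.2% wetting agent. Greenhouse, 3 weeks. Percent damage vs untreated controls.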

ALOMY [2] = assay: Pre-emergence herbicidal action against ALOMY; type: in vivo, Alopecurus myosuroides; conditions: 80 g/ha, pre-emergence, scored visually after 3 weeks vs untreated controls (100% = plants have died, 0% = like control plants)
Summary of the method: as §1

AMARE [3] = assay: Pre-emergence herbicidal action against AMARE; type: in vivo, Amaranthus retroflexus
Summary of the method: as §1

AVEFA [4] = assay: Pre-emergence herbicidal action against AVEFA; type: in vivo, Avena fatua; conditions: for Pre-emergence action against AVEFA in %: 80 g/ha
Summary of the method: as §1

ECHCG [5] = assay: Pre-emergence herbicidal action against ECHCG; type: in vivo, Echinochloa crus-galli
Summary of the method: as §1

MATIN [6] = assay: Pre-emergence herbicidal action against MATIN; type: in vivo, Matricaria inodora
Summary of the method: as §1

PHBPU [7] = assay: Pre-emergence herbicidal action against PHBPU; type: in vivo, Pharbitis purpurea; conditions: dosage 80 g/ha
Summary of the method: as §1

SETVI [8] = assay: Pre-emergence herbicidal action against SETVI; type: in vivo, Setaria viridis
Summary of the method: as §1

VERPE [9] = assay: Pre-emergence herbicidal action against VERPE; type: in vivo, Veronica persica
Summary of the method: as §1

VIOTR [10] = assay: Pre-emergence herbicidal action against VIOTR; type: in vivo, Viola tricolor
Summary of the method: as §1

ABUTH [11] = assay: Post-emergence herbicidal action against ABUTH; type: in vivo, Abutilon theophrasti; conditions: visual assessment about 3 weeks after treatment vs untreated controls
Summary of the method: (§2)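 Visual % rating (0% = as untreated, 100% = dead) ~3 wk after spraying one-leaf-stage plants grown in sandy loam; WP/EC in water at 600–800 l/ha, 0.2% wetting agent.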

ALOMY [12] = assay: Post-emergence herbicidal action against ALOMY; type: in vivo, Alopecurus myosuroides; conditions: dosage 20 g/ha, visual assessment about 3 weeks after treatment vs untreated controls
Summary of the method: as §2

AMARE [13] = assay: Post-emergence herbicidal action against AMARE; type: in vivo, Amaranthus retroflexus; conditions: 20 g/ha, visual assessment about 3 weeks after treatment, 100% = plants have died, 0% = like control plants
Summary of the method: as §2

AVEFA [14] = assay: Post-emergence herbicidal action against AVEFA; type: in vivo, Avena fatua; conditions: 20 g/ha, visual assessment about 3 weeks after treatment, 100% = plants have died, 0% = like control plants
Summary of the method: as §2

ECHCG [15] = assay: Post-emergence herbicidal action against ECHCG; type: in vivo, Echinochloa crus-galli
Summary of the method: as §2

MATIN [16] = assay: Post-emergence herbicidal action against MATIN; type: in vivo, Matricaria inodora; conditions: dosage 20 g/ha
Summary of the method: as §2

PHBPU [17] = assay: Post-emergence herbicidal action against PHBPU; type: in vivo, Pharbitis purpurea; conditions: dosage 20 g/ha
Summary of the method: as §2

SETVI [18] = assay: Post-emergence herbicidal action against SETVI; type: in vivo, Setaria viridis
Summary of the method: as §2

VERPE [19] = assay: Post-emergence herbicidal action against VERPE; type: in vivo, Veronica persica; conditions: 20 g/ha
Summary of the method: as §2

VIOTR [20] = assay: Post-emergence herbicidal action against VIOTR; type: in vivo, Viola tricolor
Summary of the method: as §2

DIGSA [21] = assay: Pre-emergence herbicidal action against DIGSA; type: in vivo, Digitaria sanguinalis
Summary of the method: as §1

DIGSA [22] = assay: Post-emergence herbicidal action against DIGSA; type: in vivo, Digitaria sanguinalis; conditions: 20 g/ha
Summary of the method: as §2

[23] = 20 g/ha, scored visually after 3 weeks vs untreated controls, 100% = plants have died, 0% = like control plants
[24] = 80 g/ha, scored visually after 3 weeks vs untreated controls (100% = plants have died, 0% = like control plants)

Row | Compound | Pre-emergence action against ABUTH (herbicidal activity) (ABUTH [1]) [%] | Pre-emergence action against ABUTH (herbicidal activity in percent) (ABUTH [1]) [%] | Pre-emergence action against ALOMY (herbicidal activity) (ALOMY [2]) [%] | Pre-emergence action against AMARE in % (AMARE [3]; [23]) [%] | Pre-emergence action against AMARE in % (AMARE [3]; [24]) [%] | Pre-emergence action against AVEFA in % (AVEFA [4]) [%] | Pre-emergence action against ECHCG in % (ECHCG [5]; 80 g/ha) [%] | Pre-emergence action against MATIN in % (MATIN [6]; dosage 20 g/ha) [%] | Pre-emergence action against MATIN in % (MATIN [6]; dosage 80 g/ha) [%] | Pre-emergence action against PHBPU in % (PHBPU [7]) [%] | Pre-emergence action against SETVI in % (SETVI [8]; dosage 80 g/ha) [%] | Pre-emergence action against VERPE in % (VERPE [9]; dosage 80 g/ha) [%] | Pre-emergence action against VIOTR in % (VIOTR [10]; dosage 20 g/ha) [%] | Pre-emergence action against VIOTR in % (VIOTR [10]; dosage 80 g/ha) [%] | Post-emergence action against ABUTH in % (ABUTH [11]; dosage 20 g/ha) [%] | Post-emergence action against ALOMY in % (ALOMY [12]) [%] | Post-emergence action at 20 g/ha against AMARE in % (AMARE [13]) [%] | Post-emergence action at 20 g/ha against AVEFA in % (AVEFA [14]) [%] | Post-emergence action against ECHCG in % (ECHCG [15]; dosage 5 g/ha) [%] | Post-emergence action against VERPE in % (VERPE [19]) [%] | other results
1 | CCn1nnnc1NC(=O)c1ccc(C(F)(F)F)c(C(=O)NCC2CC2)c1SC [Example 2-84] | 100 | 100 | 90 | 100 | 100 | 100 | 100 | 100 | 100 | 90 | 100 | 80 | 80 | 100 | 90 | 90 | 100 | 100 | 100 | 80 | Pre-emergence action against ECHCG in % (ECHCG [5]; 20 g/ha): 90%; Pre-emergence action against VERPE in % (VERPE [9]; dosage 20 g/ha): 80%; Post-emergence action against ECHCG in % (ECHCG [15]; dosage 20 g/ha): 100%; Post-emergence action against MATIN in % (MATIN [16]): 80%; Post-emergence action against PHBPU in % (PHBPU [17]): 80%; Post-emergence action against SETVI in % (SETVI [18]; dosage 5 g/ha): 80%; Post-emergence action against SETVI in % (SETVI [18]; dosage 20 g/ha): 100%; Post-emergence action against VIOTR in % (VIOTR [20]; 5 g/ha): 100%; Post-emergence action against VIOTR in % (VIOTR [20]; 20 g/ha): 100%
2 | CCn1nnnc1NC(=O)c1ccc(C(F)F)c(C(=O)NC(C)C2CC2)c1SC (stereo not shown) [Example 2-351] | 100 | 80 | 80 | 100 | 100 | 80 | 100 | 100 | 100 | 80 | 100 | 100 | 100 | 100 | 80 | 80 | 100 | 80 | 100 | 90 | Post-emergence action against ECHCG in % (ECHCG [15]; dosage 20 g/ha): 100%; Post-emergence action against MATIN in % (MATIN [16]): 80%; Post-emergence action against PHBPU in % (PHBPU [17]): 90%; Post-emergence action against VIOTR in % (VIOTR [20]; 5 g/ha): 100%; Post-emergence action against VIOTR in % (VIOTR [20]; 20 g/ha): 100%
3 | CCn1nnnc1NC(=O)c1ccc(C(F)F)c(C(=O)NCC(F)F)c1SC [Example 2-92] | 100 | 100 | 90 | 100 | 100 | 80 | 100 | 100 | 100 | 90 | 100 | 100 | 90 | 100 | 90 | 80 | 100 | 80 | 80 | 90 | Pre-emergence action against AVEFA (AVEFA [4]; 20 g/ha, scored visually after 3 weeks, 100% = plants have died, 0% = like control plants): 80%; Pre-emergence action against SETVI in % (SETVI [8]; dosage 20 g/ha): 100%; Post-emergence action against ABUTH in % (ABUTH [11]; dosage 5 g/ha): 80%; Post-emergence action against ECHCG in % (ECHCG [15]; dosage 20 g/ha): 100%; Post-emergence action against MATIN in % (MATIN [16]): 80%; Post-emergence action against PHBPU in % (PHBPU [17]): 90%; Post-emergence action against SETVI in % (SETVI [18]; dosage 5 g/ha): 80%; Post-emergence action against SETVI in % (SETVI [18]; dosage 20 g/ha): 100%; Post-emergence action against VIOTR in % (VIOTR [20]; 5 g/ha): 100%; Post-emergence action against VIOTR in % (VIOTR [20]; 20 g/ha): 100%
4 | CCn1nnnc1NC(=O)c1ccc(C(F)F)c(C(=O)NCC(F)F)c1Br [Example 2-230] | 100 | 100 | – | 100 | 100 | 80 | 90 | 90 | 100 | 80 | 90 | 100 | 90 | 100 | 80 | 90 | 100 | 80 | – | 90 | Pre-emergence action against DIGSA in % (DIGSA [21]; dosage 20 g/ha): 100%; Pre-emergence action against DIGSA in % (DIGSA [21]; dosage 80 g/ha): 100%; Post-emergence action against SETVI in % (SETVI [18]; dosage 20 g/ha): 100%; Post-emergence action against DIGSA (DIGSA [22]): 90%
